Columns and labels:
KK/Ay mice = assay: Efficacy in Type 2 diabetes-model mice (KK/Ay mice); format: in vivo, mouse
Method: KK/Ay male mice of 5 weeks of age (CLEA Japan, Inc.) were purchased; a feeding stuff for growth CMF (Oriental Yeast) was provided since the day of arrival; and mice after growth for 3 weeks or longer were used. The compound of Example 1 was diluted to 2 mg/mL, as it is dissolved in physiological saline, and the solution was administered subcutaneously in an amount of 5 mL/kg, by using a disposable syringe (Terumo) and a 26G injection needle (Terumo). Physiological saline was administered to the mice in the vehicle group. The solution was administered once a day from the day of first administration (day 0) to day 13, and the tail vein was cut open with a knife (disposable scalpel, FEATHER) and the blood sugar was determined with a simplified blood sugar analyzer (MediSense Precision Xceed, Abotto Japan). Statistical treatment of the individual data obtained was carried out by a two-group test (unpaired t-test).

anesthetized dog = assay: Effect on electrocardiogram of anesthetized dog; format: in vivo; settings: for QTc: Fridericia
Method: A male beagle and a female beagle of 11 months of age were used in the test. A beagle was anesthetized by intravenous administration of thiopental sodium at 25 mg/kg, and fixed at the dorsal position under anesthesia by isoflurane inhalation with oxygen-nitrous oxide gas (1:1). Artificial respiration was carried out under the condition of 20 mL/kg and 15 times/minute. In measurement of the electrocardiogram, bipolar extremity leads (I, II and III) and augmented unipolar extremity leads (aVR, aVL and aVF) were recorded and QT interval determined by using an electrocardiogram analyzer for animals (α6000AX-D, Fukuda M-E Kogyo Co., Ltd.), as needle electrodes were placed on four extremities.
The QTc value was calculated according to the Fridericia's formula: QTc=QT/^3√{square root over ( )}(R−R). For observation of arrhythmia in electrocardiographic waveform during test, compression electrocardiogram was printed out from the small memory card by using a long-term electrocardiogram analyzer (HS1000 system, Fukuda M-E Kogyo Co., Ltd.). The samples of the compound of Example 1 were prepared by dissolving the compound in physiological saline at concentrations of 12 mg/mL, 4 mg/mL and 1.2 mg/mL. After confirmation of stabilization of the electrocardiogram, the sample was administered through a needle (22G) previously placed in the side forearm subcutaneous vein, by using an automatic injector (Harvard digital infusion pump MODEL-22, HARVARD […]) over a period of 10 minutes.
First, vehicle (physiological saline) was administered in an amount of 0.5 mL/kg and then, after 35 minutes, 1.2 mg/mL physiological saline solution of the compound of Example 1 was administered in an amount of 0.5 mL/kg. Additionally, 4 mg/mL or 12 mg/mL physiological saline solution of the compound of Example 1 was administered in an amount of 0.5 mL/kg at an interval of 65 minutes after administration. The QT interval and the QTc value were measured, in each administration above, 5 minutes before administration, immediately before start of administration, as well as 5, 10, 15 and 30 minutes after start of administration. Thus, the measured value 30 or 60 minutes after start of previous administration corresponds to the value 5 minutes before start of administration for the following application.

[1] = Individual 1 (male), 0.6 mg/kg/10 min i.v., 0 min (immediately before start of administration)
[2] = Individual 1 (male), 0.6 mg/kg/10 min i.v., 5 min after start of administration
[3] = Individual 1 (male), 0.6 mg/kg/10 min i.v., 10 min after start of administration
[4] = Individual 1 (male), 0.6 mg/kg/10 min i.v., 15 min after start of administration
[5] = Individual 1 (male), 0.6 mg/kg/10 min i.v., 30 min after start of administration
[6] = Individual 1 (male), 0.6 mg/kg/10 min i.v., 45 min after start of administration
[7] = Individual 1 (male), 0.6 mg/kg/10 min i.v., 60 min after start of administration
[8] = Individual 1 (male), 2 mg/kg/10 min i.v., 0 min (immediately before start of administration)
[9] = Individual 1 (male), 2 mg/kg/10 min i.v., 5 min after start of administration
[10] = Individual 1 (male), 2 mg/kg/10 min i.v., 10 min after start of administration
[11] = Individual 1 (male), 2 mg/kg/10 min i.v., 15 min after start of administration
[12] = Individual 1 (male), 2 mg/kg/10 min i.v., 30 min after start of administration
[13] = Individual 1 (male), 2 mg/kg/10 min i.v., 45 min after start of administration
[14] = Individual 1 (male), 2 mg/kg/10 min i.v., 60 min after start of administration
[15] = Individual 1 (male), 6 mg/kg/10 min i.v., 0 min (immediately before start of administration)
[16] = Individual 1 (male), 6 mg/kg/10 min i.v., 5 min after start of administration
[17] = Individual 1 (male), 6 mg/kg/10 min i.v., 10 min after start of administration
[18] = Individual 1 (male), 6 mg/kg/10 min i.v., 15 min after start of administration
[19] = Individual 1 (male), 6 mg/kg/10 min i.v., 30 min after start of administration
[20] = Individual 1 (male), 6 mg/kg/10 min i.v., 45 min after start of administration
[21] = Individual 1 (male), 6 mg/kg/10 min i.v., 60 min after start of administration
[22] = Individual 2 (female), 0.6 mg/kg/10 min i.v., 0 min (immediately before start of administration)
[23] = Individual 2 (female), 0.6 mg/kg/10 min i.v., 5 min after start of administration
[24] = Individual 2 (female), 0.6 mg/kg/10 min i.v., 10 min after start of administration
[25] = Individual 2 (female), 0.6 mg/kg/10 min i.v., 15 min after start of administration
[26] = Individual 2 (female), 0.6 mg/kg/10 min i.v., 30 min after start of administration
[27] = Individual 2 (female), 0.6 mg/kg/10 min i.v., 45 min after start of administration
[28] = Individual 2 (female), 0.6 mg/kg/10 min i.v., 60 min after start of administration
[29] = Individual 2 (female), 2 mg/kg/10 min i.v., 0 min (immediately before start of administration)
[30] = Individual 2 (female), 2 mg/kg/10 min i.v., 5 min after start of administration
[31] = Individual 2 (female), 2 mg/kg/10 min i.v., 10 min after start of administration
[32] = Individual 2 (female), 2 mg/kg/10 min i.v., 15 min after start of administration
[33] = Individual 2 (female), 2 mg/kg/10 min i.v., 30 min after start of administration
[34] = Individual 2 (female), 2 mg/kg/10 min i.v., 45 min after start of administration
[35] = Individual 2 (female), 2 mg/kg/10 min i.v., 60 min after start of administration
[36] = Individual 2 (female), 6 mg/kg/10 min i.v., 0 min (immediately before start of administration)
[37] = Individual 2 (female), 6 mg/kg/10 min i.v., 5 min after start of administration
[38] = Individual 2 (female), 6 mg/kg/10 min i.v., 10 min after start of administration
[39] = Individual 2 (female), 6 mg/kg/10 min i.v., 15 min after start of administration
[40] = Individual 2 (female), 6 mg/kg/10 min i.v., 30 min after start of administration
[41] = Individual 2 (female), 6 mg/kg/10 min i.v., 45 min after start of administration
[42] = Individual 2 (female), 6 mg/kg/10 min i.v., 60 min after start of administration
[43] = anesthetized beagle, i.v. 0.6, 2 and 6 mg/kg/10 min

Which results are given for COc1cc(CN[C@@H](C)[C@H](O)c2ccc(O)c(NS(C)(=O)=O)c2)cc(OC)c1 [Example 1, N-(5-((1R,2S)-2-(3,5-Dimethoxybenzylamino)-1-hydroxypropyl)-2-hydroxyphenyl)methanesulfonamide]?
blood sugar versus solvent group (KK/Ay mice): lowered the blood sugar statistically significantly; Blood sugar (KK/Ay mice; 10 mg/kg s.c. once a day, day 0 to day 13): 336 ± 33 mg/dL; QT interval (anesthetized dog; [1]): 241 ms; QTc (anesthetized dog; [1]): 303 ms; QT interval (anesthetized dog; [2]): 228 ms; QTc (anesthetized dog; [2]): 299 ms; QT interval (anesthetized dog; [3]): 210 ms; QTc (anesthetized dog; [3]): 287 ms; QT interval (anesthetized dog; [4]): 205 ms; QTc (anesthetized dog; [4]): 280 ms; QT interval (anesthetized dog; [5]): 213 ms; QTc (anesthetized dog; [5]): 290 ms; QT interval (anesthetized dog; [6]): 220 ms; QTc (anesthetized dog; [6]): 296 ms; QT interval (anesthetized dog; [7]): 221 ms; QTc (anesthetized dog; [7]): 294 ms; QT interval (anesthetized dog; [8]): 218 ms; QTc (anesthetized dog; [8]): 293 ms; QT interval (anesthetized dog; [9]): 203 ms; QTc (anesthetized dog; [9]): 283 ms; QT interval (anesthetized dog; [10]): 203 ms; QTc (anesthetized dog; [10]): 283 ms; QT interval (anesthetized dog; [11]): 213 ms; QTc (anesthetized dog; [11]): 294 ms; QT interval (anesthetized dog; [12]): 218 ms; QTc (anesthetized dog; [12]): 297 ms; QT interval (anesthetized dog; [13]): 221 ms; QTc (anesthetized dog; [13]): 299 ms; QT interval (anesthetized dog; [14]): 225 ms; QTc (anesthetized dog; [14]): 304 ms; QT interval (anesthetized dog; [15]): 220 ms; QTc (anesthetized dog; [15]): 296 ms; QT interval (anesthetized dog; [16]): 210 ms; QTc (anesthetized dog; [16]): 292 ms; QT interval (anesthetized dog; [17]): 211 ms; QTc (anesthetized dog; [17]): 294 ms; QT interval (anesthetized dog; [18]): 210 ms; QTc (anesthetized dog; [18]): 291 ms; QT interval (anesthetized dog; [19]): 211 ms; QTc (anesthetized dog; [19]): 291 ms; QT interval (anesthetized dog; [20]): 235 ms; QTc (anesthetized dog; [20]): 320 ms; QT interval (anesthetized dog; [21]): 226 ms; QTc (anesthetized dog; [21]): 305 ms; QT interval (anesthetized dog; [22]): 240 ms; QTc (anesthetized dog; [22]): 293 ms; QT interval (anesthetized dog; [23]): 243 ms; QTc (anesthetized dog; [23]): 315 ms; QT interval (anesthetized dog; [24]): 236 ms; QTc (anesthetized dog; [24]): 310 ms; QT interval (anesthetized dog; [25]): 223 ms; QTc (anesthetized dog; [25]): 296 ms; QT interval (anesthetized dog; [26]): 218 ms; QTc (anesthetized dog; [26]): 297 ms; QT interval (anesthetized dog; [27]): 211 ms; QTc (anesthetized dog; [27]): 288 ms; QT interval (anesthetized dog; [28]): 213 ms; QTc (anesthetized dog; [28]): 292 ms; QT interval (anesthetized dog; [29]): 215 ms; QTc (anesthetized dog; [29]): 293 ms; QT interval (anesthetized dog; [30]): 210 ms; QTc (anesthetized dog; [30]): 292 ms; QT interval (anesthetized dog; [31]): 210 ms; QTc (anesthetized dog; [31]): 289 ms; QT interval (anesthetized dog; [32]): 210 ms; QTc (anesthetized dog; [32]): 288 ms; QT interval (anesthetized dog; [33]): 225 ms; QTc (anesthetized dog; [33]): 303 ms; QT interval (anesthetized dog; [34]): 220 ms; QTc (anesthetized dog; [34]): 298 ms; QT interval (anesthetized dog; [35]): 221 ms; QTc (anesthetized dog; [35]): 299 ms; QT interval (anesthetized dog; [36]): 220 ms; QTc (anesthetized dog; [36]): 296 ms; QT interval (anesthetized dog; [37]): 215 ms; QTc (anesthetized dog; [37]): 293 ms; QT interval (anesthetized dog; [38]): 211 ms; QTc (anesthetized dog; [38]): 289 ms; QT interval (anesthetized dog; [39]): 215 ms; QTc (anesthetized dog; [39]): 292 ms; QT interval (anesthetized dog; [40]): 213 ms; QTc (anesthetized dog; [40]): 289 ms; QT interval (anesthetized dog; [41]): 226 ms; QTc (anesthetized dog; [41]): 303 ms; QT interval (anesthetized dog; [42]): 220 ms; QTc (anesthetized dog; [42]): 294 ms; arrhythmia in electrocardiographic waveform (anesthetized dog; [43]): no arrhythmia observed; prolongation of the QT interval (anesthetized dog; [43]): did not cause prolongation of the QT interval
